Measurements taken from paper PMC5640650, “NatD promotes lung cancer progression by preventing histone H4 serine phosphorylation to activate Slug expression” (Nature Communications, 2017).

Tests used:
[1] = test system: promoters of Zeb1, Zeb2, Twist1, and Snail; assay: ChIP assay on the promoters of Zeb1, Zeb2, Twist1, and Snail, H1299 cells; assay type: cell-based, human; conditions: vs Scr
Protocol: ChIP assays were performed with H1299 cells in accordance with standard protocols. Normal rabbit IgG served as the control. ChIP samples were analyzed by quantitative real-time PCR using the FastStart Universal SYBR Green Master (Roche). A standard curve was prepared for each set of primers using serial titration of the input DNA. The percentage of ChIP DNA was calculated relative to the input DNA from primer-specific standard curves using the Rotor-Gene 6000 Series Software 1.7. The primer sequences for ChIP are listed in Supplementary Table 4. Antibodies used were: H4S1ph (Abcam; ab14723), H4K5ac (Millipore; CS204381), H4R3me2a (Active Motif; 39705), H4R3me2s (Abcam; ab5823), CK2α (Abcam; ab70774), H3K4me3 (Abcam; ab8580), and H3K27me3 (Abcam; ab6002).
Supplementary Figure 7. Knockdown of NatD has no effect on enrichment of H4S1ph on some EMT-related gene promoters. (a-d) ChIP analysis of the enrichment of Nt-ac-H4, H4S1ph, H3K4me3 and H3K27me3 on the promoter of Zeb1(a), Zeb2(b), Twist1(c), and Snail (d) in Scr and NatD-KD H1299 cells. IgG served as a negative control. Results are shown as mean ± s.d. of three independent experiments; two-tailed Student’s t-test, **P<0.01 or *P<0.05 compared to Scr […]
(1 picture or pasted object on this page, not shown here)

LLC cells = assay: Tail vein injection in C57BL/6 mice, LLC cells; assay type: in vivo, murine; conditions: 30 days, n = 5, vs Scr
Protocol: All animal care and handling procedures were performed in accordance with the National Institutes of Health Guide for the Care and Use of Laboratory Animals, and were approved by the Institutional Review Board of Nanjing University (Nanjing, China). Female SCID mice and C57BL/6 mice (6–8 week old) were purchased from the Model Animal Research Center of Nanjing University (Nanjing, China), and were maintained under specific pathogen-free conditions at Nanjing University. The sample size was chosen with adequate power on the basis of the literature and our previous experience[46] and for each experiment it is indicated in the figure legend. […] Lung nodules and progression were monitored and quantified using the bioluminescence system (Caliper IVIS Lumina XR) or by counting under a dissecting microscope. […] Mice were killed at day 28 or day 30 to collect lungs, and lung nodules in serial sections were quantified microscopically. […] Lung nodules and progression were monitored and quantified using the bioluminescence system (Caliper IVIS Lumina XR). Mice were killed at day 14 or day 21 to collect lungs, and lung nodules in serial sections were quantified microscopically. […]
Representative blots from three independent experiments. […] (bottom) Cell migration and invasion expressed as a percentage of Scr control. […]

Substance: NatD-KD2: Human NatD shRNA KD2: 5′-GGTTGAATGTCTCCATTGA-3′, lentiviral (shRNA lentiviral)
- enrichment of H4S1ph, H3K4me3, and H3K27me3 on Zeb1, Zeb2, Twist1, Snail promoters [1]: unchanged
- enrichment of Nt-ac-H4 on Zeb1, Zeb2, Twist1, Snail promoters [1]: reduced
- number of tumor nodules (LLC cells): significantly fewer tumor nodules
